Measured values as given in patent US20190330189A1, “ANTIBACTERIAL COMPOUNDS” (Janssen Sciences Ireland UC, priority 2015, published 2019).

How the values were obtained:
[1] = test system: Mycobacterium tuberculosis strain EH 4.0 (361.269); assay: Test 4: MIC determination, resazurin fluorescence, strain EH 4.0; format: cell-based; details: for IC50: Mycobacterium tuberculosis, read-out: pIC50, Test 4, M. tuberculosis strain EH 4.0 (361.269) (converted); for pIC50: Test 4, M. tuberculosis strain EH 4.0 (361.269)
Text: TEST 4 (See Also Test 1 Above; in this Test a Different Strain of Mycobacterium tuberculosis Strain is Employed)
Appropriate solutions of experimental and reference compounds were made in 96 well plates with 7H9 medium. Samples of Mycobacterium tuberculosis strain EH 4.0 (361.269) were taken from cultures in stationary growth phase. These were first diluted to obtain an optical density of 0.3 at 600 nm wavelength and then diluted 1/100, resulting in an inoculum of approximately 5×10 exp5 colony forming units per well. Plates were incubated at 37° C. in plastic bags to prevent evaporation. After 7 days, resazurin was added to all wells.

Structure (SMILES): CCc1nc2ncc(Cl)cn2c1C(=O)NCc1ccc(N2CC3(CC(=O)C3)C2)cc1 [Compound 126]
- melting point: 187.49 °C
- IC50 [1]: 10000 nM
- pIC50 [1]: 4.9

Structure (SMILES): Cc1nn2ccccc2c1C(=O)NCc1ccc(C2CC3(C2)CN(c2ccccc2)C3)cc1 [Compound 127]
- melting point: 201.15 °C
- IC50 [1]: 126 nM
- pIC50 [1]: 7.0

Structure (SMILES): CCc1nc2ncc(Cl)cn2c1C(=O)NCc1ccc(C2CC3(C2)CN(C(=O)C(F)(F)F)C3)cc1 [Compound 128]
- melting point: 160.59 °C
- IC50 [1]: 31.6 nM

Structure (SMILES): Cc1nc2sc(Cl)cn2c1C(=O)NCc1ccc(N2CC3(CC(=O)C3)C2)cc1 [Compound 129]
- melting point: 188.46 °C
- IC50 [1]: 398 nM
- pIC50 [1]: 6.5

Structure (SMILES): CCc1nc2n(c1C(=O)NCc1ccc(N3CC4(CC(OC(F)(F)F)C4)C3)cc1)CCCC2 [Compound 130]
- melting point: 169.56 °C
- IC50 [1]: 15.8 nM

Structure (SMILES): CCc1nc2ncc(Cl)cn2c1C(=O)NCc1ccc(N2CC3(CC(OC(F)(F)F)C3)C2)cc1 [Compound 131]
- melting point: 172.76 °C
- IC50 [1]: 5.01 nM

Structure (SMILES): CCc1nc2ccc(Cl)cn2c1C(=O)NCc1ccc(C2CC3(C2)CN(c2cnccn2)C3)cc1 [Compound 132]
- melting point: 149.46 °C
- IC50 [1]: 7940 nM

Structure (SMILES): CCc1nc2ncc(Cl)cn2c1C(=O)NCc1ccc(N2CCC3(CC2)CC(F)(F)C3)cc1 [Compound 133]
- melting point: 84.29 °C
- IC50 [1]: 2 nM

Structure (SMILES): CCc1nc2ncc(Cl)cn2c1C(=O)NCc1ccc(C2CC3(C2)CN(c2cncnc2)C3)cc1 [Compound 134]
- melting point: 188.07 °C
- IC50 [1]: 6.31 nM

Structure (SMILES): CCc1nn2ccccc2c1C(=O)NCc1ccc(C2CC3(C2)CN(c2ccc(OC(F)(F)F)cc2)C3)cc1 [Compound 138]
- melting point: 105.98 °C
- IC50 [1]: 39.8 nM

Structure (SMILES): CCc1nn2c(c1C(=O)NCc1ccc(C3CC4(C3)CN(c3ccc(OC(F)(F)F)cc3)C4)cc1)CCCC2 [Compound 139]
- melting point: 135.21 °C
- IC50 [1]: 7940 nM

Structure (SMILES): Cc1nn2ccccc2c1C(=O)NCC1CC2(CCN(c3ccc(OC(F)(F)F)cc3)CC2)C1 [Compound 140]
- melting point: 121.52 °C
- IC50 [1]: 1580 nM

Structure (SMILES): Cc1nn2ccccc2c1C(=O)NCc1ccc(C2CC3(C2)CN(c2ccc(OC(F)(F)F)cc2)C3)cc1 [Compound 141]
- melting point: 158.48 °C
- IC50 [1]: 31.6 nM

Structure (SMILES): Cc1nn2ccccc2c1C(=O)NCc1ccc(N2CC3(C2)CN(c2ccc(OC(F)(F)F)cc2)C3)cc1 [Compound 142]
- melting point: 193.19 °C
- IC50 [1]: 126 nM

Structure (SMILES): Cc1nn2ccccc2c1C(=O)NCc1ccc(N2CC3(CN(F)C3)C2)cc1 [Compound 143]
- melting point: 130.31 °C
- IC50 [1]: 398 nM

Structure (SMILES): CCc1nn2ccccc2c1C(=O)NCc1ccc(N2CC3(C2)CN(c2ccc(OC(F)(F)F)cc2)C3)cc1 [Compound 144]
- melting point: 135.8 °C
- IC50 [1]: 79.4 nM

Structure (SMILES): CCc1nn2c(Cl)cccc2c1C(=O)NCc1ccc(C2CC3(C2)CN(c2ccc(OC(F)(F)F)cc2)C3)cc1 [Compound 146]
- melting point: 119.23 °C
- IC50 [1]: 316 nM

Structure (SMILES): CCc1nn2c(OC)cccc2c1C(=O)NCc1ccc(C2CC3(C2)CN(c2ccc(OC(F)(F)F)cc2)C3)cc1 [Compound 147]
- melting point: 151.74 °C
- IC50 [1]: 1260 nM

Structure (SMILES): CCc1nc2ncc(Cl)cn2c1C(=O)NCc1ccc(N2CC3(C2)CC(F)(F)C3)cc1 [Compound 148]
- melting point: 158.14 °C
- IC50 [1]: 15.8 nM

Structure (SMILES): CCc1nc2ncc(Cl)cn2c1C(=O)NCc1ccc(N2CC3(CC(Oc4ccc(F)cc4)C3)C2)cc1 [Compound 152]
- melting point: 350 °C
- IC50 [1]: 15.8 nM

Structure (SMILES): CCc1nc2ncc(Cl)cn2c1C(=O)NCc1ccc(N2CCC3(CC2)CC(OC(F)(F)F)C3)cc1 [Compound 153]
- melting point: 150.61 °C
- IC50 [1]: 2 nM

Structure (SMILES): CCc1nc2c(F)cccn2c1C(=O)NCc1ccc(C2CC3(C2)CN(c2ccc(OC(F)(F)F)cc2)C3)cc1 [Compound 157]
- melting point: 144.55 °C
- IC50 [1]: 7940 nM

Structure (SMILES): CCc1nc2ccc(Cl)cn2c1C(=O)NCc1ccc(N2CC3(CC(c4ccnn4C)C3)C2)cc1 [Compound 158]
- melting point: 101.95 °C
- IC50 [1]: 398 nM
